Laboratory results from patent US6218519A, “Compounds and methods for the selective treatment of cancer and bacterial infections” (Pro-Neuron, Inc., priority 1996, dated 2001).
Where a name gives a salt, the structure may show the parent alone. Read-outs that look alike come from different tables or passages of the source.

How the values were obtained:
carcinoma cells = conditions: glucuronide versus parent epirubicin; cited from earlier work
A-375 (human melanoma) = assay: Growth inhibition studies, crystal violet staining, 72 hr; assay type: cell-based; conditions: A-375, 72 h
From the text: Growth Inhibition Studies. […] cell lines: A-375 (human melanoma), LSl174T (colon carcinoma), ME 180 (cervical carcinoma), SK-OV-3 (ovarian carcinoma), and BT-474 (breast carcinoma) were routinely grown in […] Minimal Essential Medium (MEM, Gibco Inc.) containing 10% fetal bovine serum albumin (Atlanta Biologics). Cells were passaged weekly by trypsinization (Gibco) followed by plating at reduced density (50,000 cells/ml). They were routinely tested and found to be free of mycoplasma contamination. Cells were harvested by trypsinization and plated in 96 well plates at a density of 5,000 per well in 100 μl of MEM culture media. Cells were allowed to adhere by incubation for 24 hr at 37° C. in humidified 5% CO2. The wells containing log-phase cells were treated with complete MEM containing serial dilutions of N-[(4"RS-4"-Ethoxy-4"-β-D-glucopyranurongloxy)butyl]daunorubicin (sodium salt) 10b at concentrations ranging from 10^-5 to 10^-14 M Each well also contained a 50-fold unit excess of β-glucuronidase (i.e., 50 units of enzyme per βmole of substrate). Control reactions were run with 10b in the absence of β-glucuronidase, daunomycin alone, and daunomycin in the presence β-glucuronidase. […] Cell-bound dye was solubilized with Sorenson's Buffer (0.1 M sodium citrate, pH 4.2-ethanol, 1:1, v/v) and the wells were read on an ELISA microplate autoreader at 540 nm. […]

[1] = molecular target: β-Glucuronidase (E. Coli) (EC 3. 2. 1. 31) (Escherichia coli, UniProt P05804); assay: in vitro; conditions: beta-glucuronidase, phosphate buffer, pH 7.4, half-life for the disappearance of 10b
β-Glucuronidase (E. Coli) (EC 3. 2. 1. 31), sequence (P05804 whole entry): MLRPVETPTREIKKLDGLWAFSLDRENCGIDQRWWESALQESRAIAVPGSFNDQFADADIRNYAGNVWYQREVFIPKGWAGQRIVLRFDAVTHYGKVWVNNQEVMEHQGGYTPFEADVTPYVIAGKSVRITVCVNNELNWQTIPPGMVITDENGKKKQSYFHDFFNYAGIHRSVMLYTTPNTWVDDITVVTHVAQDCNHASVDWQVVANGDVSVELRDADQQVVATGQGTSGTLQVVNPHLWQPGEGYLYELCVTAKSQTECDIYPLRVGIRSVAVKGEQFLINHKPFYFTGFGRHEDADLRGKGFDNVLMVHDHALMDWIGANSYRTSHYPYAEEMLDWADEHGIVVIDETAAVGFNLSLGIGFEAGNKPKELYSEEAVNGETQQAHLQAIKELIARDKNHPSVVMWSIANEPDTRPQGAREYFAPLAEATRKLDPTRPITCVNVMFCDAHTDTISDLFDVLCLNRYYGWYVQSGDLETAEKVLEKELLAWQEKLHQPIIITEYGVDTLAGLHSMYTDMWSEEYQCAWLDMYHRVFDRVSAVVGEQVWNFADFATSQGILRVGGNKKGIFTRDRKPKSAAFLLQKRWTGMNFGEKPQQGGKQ

SMILES | detoxification of the parent drug (carcinoma cells) | IC50 (A-375 (human melanoma); read-out: IC50 (drug concentration that inhibited cell growth by 50%), A375 cell line, in the absence of β-glucuronidase, 72 hr) | IC50 (A-375 (human melanoma); read-out: IC50 (drug concentration that inhibited cell growth by 50%), A375 cell line, in the presence of glucuronidase (50 units of enzyme per µmole of substrate), 72 hr) | half-life at 100 µM [1] | half-life at 100 µM ([1]; 10-fold enzyme excess (10 units of enzyme per µmol of substrate), 0.05 M potassium phosphate buffer pH 7.4) | half-life at 100 µM ([1]; 20-fold enzyme excess (20 units of enzyme per µmol of substrate), 0.05 M potassium phosphate buffer pH 7.4)
COc1cccc2c1C(=O)c1c(O)c3c(c(O)c1C2=O)C[C@@](O)(C(=O)CO)C[C@@H]3O[C@H]1C[C@H](N)[C@@H](O[C@@H]2O[C@H](C(=O)O)[C@@H](O)[C@H](O)[C@H]2O)[C@H](C)O1 [glucuronide of epirubicin] | up to 1000 fold |  |  |  |  | 
CCOC(CCCN[C@H]1C[C@H](O[C@H]2C[C@](O)(C(C)=O)Cc3c(O)c4c(c(O)c32)C(=O)c2c(OC)cccc2C4=O)O[C@@H](C)[C@H]1O)O[C@@H]1O[C@H](C(=O)O)[C@@H](O)[C@H](O)[C@H]1O (stereo partly drawn) [Compound 10b, N-[(4"RS)-4"-Ethoxy-4"-(β-D-glucopyranuronyloxy)butyl]daunorubicin (Sodium salt)] |  | 200 ng/mL | 0.02 ng/mL | 8.1 h | 6.9 h | 2 h
